Among the data in patent US7291641B2, “Derivatives of heterocycles with 5 members, their preparation and their use as medicaments” (Societe de Conseils de Recherches et d'Applications …, priority 1999, dated 2007) are melting point values, retold here.

Structures can show the parent of a compound that is named as a salt.

One may read the melting point as the temperature, or range, at which the solid turns liquid. `CCCCCCC(N)c1nc(-c2ccc(C)cc2)c[nH]1` (racemic) (as salt: hydrochloride) [Example 184, (R,S)-1-[4-(4-methylphenyl)-1H-imidazol-2-yl]-1-heptanamine] had a melting point of 157 to 160 °C.
`CC(C)(C)OC(=O)NCc1nc(-c2ccccc2)c[nH]1` [Example 103, tert-butyl (4-phenyl-1H-imidazol-2-yl)methylcarbamate] showed a melting point of 170 to 172 °C.
`CC(C)C[C@@H](NCc1ccccc1)c1nc(-c2ccccc2)c[nH]1` [Example 125, (1R)-N-benzyl-3-methyl-1-(4-phenyl-1H-imidazol-2-yl)-1-butanamine] returned a melting point of 134 to 135 °C.
In the case of `CCCCCCC(NCc1ccccc1)c1nc(-c2ccccc2)c[nH]1` (racemic) [Example 145, (R,S)-N-benzyl-1-(4-phenyl-1H-imidazol-2-yl)-1-heptanamine], the melting point fell in the range of 160 to 162 °C.
`c1ccc(CNC2(c3nc(-c4ccccc4)c[nH]3)CCCCC2)cc1` [Example 123, N-benzyl-1-(4-phenyl-1H-imidazol-2-yl)cyclohexanamine] yielded a melting point of 114 to 116 °C.
For `c1ccc(CN[C@H](Cc2csc3ccccc23)c2nc(-c3ccccc3)c[nH]2)cc1` [Example 111, (1R)-2-(1-benzothien-3-yl)-N-benzyl-1-(4-phenyl-1H-imidazol-2-yl)ethanamine] the value was 152 to 154 °C; for `CCCCOC(=O)NCCc1nc(-c2ccc(-c3ccccc3)cc2)c[nH]1` [Example 31, butyl 2-(4-[1,1′-biphenyl]-4-yl-1H-imidazol-2-yl)ethylcarbamate], 136.7 °C.
`CCCCCCC(NCc1ccccc1)c1nc(-c2ccccc2OC)c[nH]1` (racemic) [Example 201, (R,S)-N-benzyl-1-[4-(2-methoxyphenyl)-1H-imidazol-2-yl]-1-heptanamine] gave a melting point of 155 to 157 °C.
In turn, `c1ccc(CNCc2nc(-c3ccccc3)c(-c3ccccc3)[nH]2)cc1` [Example 163, N-benzyl(4,5-diphenyl-1H-imidazol-2-yl)methanamine] registered a melting point of 160 to 162 °C.
`CC(C)(C)c1c[nH]c([C@H](N)Cc2c[nH]c3ccccc23)n1` (as salt: hydrochloride) displayed a melting point of 230 to 232 °C.
Next, `O=C(N[C@H](Cc1c[nH]c2ccccc12)c1nc(-c2ccccc2)c[nH]1)c1ccccc1` [Example 98, N-[(1R)-2-(1H-indol-3-yl)-1-(4-phenyl-1H-imidazol-2-yl)ethyl]benzamide]: 218 to 220 °C.
Regarding `CNCc1nc(-c2ccccc2)c(C)[nH]1` (as salt: hydrochloride) [Example 158, N-methyl-(5-methyl-4-phenyl-1H-imidazol-2-yl)methanamine], the melting point was in the range of 218 to 220 °C.
On to `CCCCOC(=O)NCCc1nc(-c2ccc(-c3ccc(F)c(Cl)c3)cc2)c[nH]1` [Example 447, butyl 2-[4-(3′-chloro-4′-fluoro-1,1′-biphenyl-4-yl)-1H-imidazol-2-yl]ethylcarbamate], for which the melting point worked out at 132.4 °C.
On to `CC(C)(C)OC(=O)NCc1nc(-c2ccc(-c3ccccc3)cc2)cn1Cc1ccccc1` [Example 140, 4-(1-benzyl-2-{[(tert-butoxycarbonyl)amino]methyl}-1H-imidazol-4-yl)-1,1′-biphenyl], for which the melting point is 167 to 169 °C.
For `FC(F)(F)Oc1ccc(-c2c[nH]c([C@@H](NC3CCC3)C3CCCCC3)n2)cc1` [Example 270, N-((S)-cyclohexyl{4-[4-(trifluoromethoxy)phenyl]-1H-imidazol-2-yl}methyl)-cyclobutanamine], the melting point was 136 to 140 °C.
For `CC(C)(C)c1cc(-c2c[nH]c(CCNC(=O)OCC3CCCCC3)n2)cc(C(C)(C)C)c1O` (as salt: hydrochloride) [Example 329, cyclohexylmethyl 2-[4-(3,5-ditert-butyl-4-hydroxyphenyl)-1H-imidazol-2-yl]ethylcarbamate] the value was 111.5 °C.
Next, `N[C@H](c1nc(-c2ccccc2)c[nH]1)C1CCCCC1` (as salt: hydrochloride) [Example 80, (S)-cyclohexyl(4-phenyl-1H-imidazol-2-yl)methylamine]: 208 to 210 °C; `CC(C)(C)c1ccc(-c2c[nH]c(CCNC(=O)OC3CCCCC3)n2)cc1` [Example 342, cyclohexyl 2-[4-(4-tert-butylphenyl)-1H-imidazol-2-yl]ethylcarbamate]: 127 to 130 °C.
The compound `CC(C)(C)CCOC(=O)NCCc1nc(-c2ccc(-c3ccccc3)cc2)c[nH]1` [Example 383, 3,3-dimethylbutyl 2-[4-(1,1′-biphenyl-4-yl)-1H-imidazol-2-yl]ethylcarbamate] displayed a melting point of 98.4 °C.
`CC(C)COC(=O)NCCc1nc(-c2ccc(-c3ccc(Br)cc3)cc2)c[nH]1` [Example 338, isobutyl 2-[4-(4′-bromo-1,1′-biphenyl-4-yl)-1H-imidazol-2-yl]ethylcarbamate] showed a melting point of 158.7 °C.
`CC(C)COC(=O)NCCc1nc(-c2ccc(C(C)(C)C)cc2)c[nH]1` [Example 339, isobutyl 2-[4-(4-tert-butylphenyl)-1H-imidazol-2-yl]ethylcarbamate] gave a melting point of 110.6 °C.
Next, `Fc1ccc(-c2c[nH]c([C@@H](NC3CCCCC3)C3CCCCC3)n2)cc1` (as salt: hydrochloride) [Example 264, N-{(S)-cyclohexyl[4-(4-fluorophenyl)-1H-imidazol-2-yl]methyl}cyclohexanamine]: > 250 °C.
With `CCCCCC(N)c1nc(-c2ccccc2)c[nH]1` (racemic) (as salt: hydrochloride) [Example 65, (R,S)-1-(4-phenyl-1H-imidazol-2-yl)hexylamine], the melting point lay in the range of 146 to 148 °C.
For `CC(C)CCCC(NC1CCCCC1)c1nc(-c2cccc(Br)c2)c[nH]1` (racemic) (as salt: hydrochloride) [Example 272, (R,S)-N-{1-[4-(3-bromophenyl)-1H-imidazol-2-yl]-5-methylhexyl}-cyclohexanamine] the value was 216.7 °C; for `Brc1cccc(-c2c[nH]c([C@@H](NC3CCCCC3)C3CCCCC3)n2)c1` (as salt: hydrochloride) [Example 297, N-[(S)-[4-(3-bromophenyl)-1H-imidazol-2-yl](cyclohexyl)methyl]-cyclohexanamine], 230.4 °C.
`c1ccc(CN[C@H](Cc2c[nH]c3ccccc23)c2nc(-c3ccccc3)cs2)cc1` [Example 100, (1R)-N-benzyl-2-(1H-indol-3-yl)-1-(4-phenyl-1,3-thiazol-2-yl)ethanamine]: the melting point is 134 to 136 °C.
On to `CCCCC(NC(=O)OC(C)(C)C)c1nc(-c2ccc(-c3ccccc3)cc2)c[nH]1` (racemic) [Example 59, (R,S)-4-(2-{1-[(tert-butoxycarbonyl)amino]pentyl}-1H-imidazol-4-yl)-1,1′-biphenyl], for which the melting point was in the range of 172 to 176 °C.
Turning to `CCCCCCNC(CCCCCC)c1nc(-c2ccccc2)c[nH]1` (racemic) [Example 64, (R,S)-N-hexyl-1-(4-phenyl-1H-imidazol-2-yl)-1-heptanamine], the melting point fell in the range of 140 to 142 °C.
Next, `CC[C@H](NC(=O)OC(C)(C)C)c1nc(-c2ccc(-c3ccccc3)cc2)c[nH]1` [Example 194, 4-(2-{(1S)-1-[(tert-butoxycarbonyl)amino]propyl}-1H-imidazol-4-yl)-1,1′-biphenyl]: 138 to 140 °C; `CCCCOC(=O)NCCc1nc(-c2ccc(-c3ccccc3OC)cc2)c[nH]1` [Example 458, butyl 2-[4-(2′-methoxy-1,1′-biphenyl-4-yl)-1H-imidazol-2-yl]ethylcarbamate]: 116 to 121 °C; `CCCCCCC(N)c1nc(-c2ccc(F)cc2)c[nH]1` (racemic) (as salt: hydrochloride) [Example 220, (R,S)-1-[4-(4-fluorophenyl)-1H-imidazol-2-yl]-1-heptanamine]: 148 to 150 °C.
`CC[C@H](NCc1ccccc1)c1nc(-c2ccc(-c3ccccc3)cc2)c[nH]1` [Example 198, (1S)-N-benzyl-1-(4-[1,1′-biphenyl]4-yl-1H-imidazol-2-yl)-1-propanamine]: the melting point is 220 to 222 °C.
The compound `CC(C)(C)OC(=O)N[C@H](Cc1c[nH]c2ccccc12)c1nc(C(C)(C)C)c[nH]1` [Example 50, tert-butyl (1R)-1-(4-tert-butyl-1H-imidazol-2-yl)-2-(1H-indol-3-yl)-ethylcarbamate] displayed a melting point of 104 to 106 °C.
Next, `CC(C)(C)c1ccc(-c2c[nH]c(CCNC(=O)OCc3ccccc3)n2)cc1` [Example 382, benzyl 2-[4-(4-tert-butylphenyl)-1H-imidazol-2-yl]ethylcarbamate]: 173 °C; `C#CCN(C)Cc1nc(-c2cc(C(C)(C)C)c(O)c(C(C)(C)C)c2)cs1` [Example 2, 2,6-di(tert-butyl)-4-(2-{[methyl(2-propynyl)amino]methyl}-1,3-thiazol-4-yl)phenol]: 210 to 215 °C; `CC(C)(C)OC(=O)N[C@@H](Cc1c[nH]c2ccccc12)c1nc(-c2ccccc2)c(-c2ccccc2)[nH]1` [Example 147, tert-butyl (1S)-1-(4,5-diphenyl-1H-imidazol-2-yl)-2-(1H-indol-3-yl)ethylcarbamate]: 142 to 143 °C.
Take `N[C@H](CC1CCCCC1)c1nc(-c2ccc(F)cc2)c[nH]1` (as salt: hydrochloride) [Example 308, (1R)-2-cyclohexyl-1-[4-(4-fluorophenyl)-1H-imidazol-2-yl]ethanamine]: the melting point lay in the range of 148 to 149 °C.
Compound `CCCCNC(=O)NCCc1nc(-c2ccc(-c3ccccc3)cc2)c[nH]1` [Example 34] came in with a melting point of 178 °C.
`CCCCCCC(NC1CCC1)c1nc(-c2ccccc2)c[nH]1` (racemic) [Example 240, (R,S)-N-[1-(4-phenyl-1H-imidazol-2-yl)heptyl]cyclobutanamine] registered a melting point of 148 to 150 °C.
With `CCN(CC)c1ccc(-c2c[nH]c([C@@H](N)C3CCCCC3)n2)cc1` (as salt: hydrochloride) [Example 310, 4-{2-[(S)-amino(cyclohexyl)methyl]-1H-imidazol-4-yl}-N,N-diethylaniline], the melting point is 216 to 217 °C.
